Experimental data published in patent US9550751B2, “Processes for the preparation of pesticidal compounds” (Dow AgroSciences LLC, priority 2013, dated 2017).
Counter-ions that a name gives are not always drawn. Like-named read-outs stand apart in the source and are kept apart here.

Assays:
[1] = tested on: Green Peach Aphid (Myzus persicae) (MYZUPE); test: Bioassays on Green Peach Aphid (GPA), foliar spray on cabbage seedlings; type: in vivo; conditions: 72 h, read-out: MYZUPE rating (% Control of Mortality)
Description: Several molecules disclosed herein were tested against GPA using procedures described below.
Cabbage seedling grown in 3-in pots, with 2-3 small (3-5 cm) true leaves, were used as test substrate. The seedlings were infested with […] (wingless adult and nymph stages) one day prior to chemical application. Four pots with individual seedlings were used for each treatment. Test compounds (2 mg) were dissolved in 2 mL of acetone/MeOH (1:1) solvent, forming stock solutions of 1000 ppm test compound. The stock solutions were diluted 5× with 0.025% Tween 20 in water to obtain the solution at 200 ppm test compound. A hand-held aspirator-type sprayer was used for spraying a solution to both sides of the cabbage leaves until runoff. Reference plants (solvent check) were sprayed with the diluent only containing 20% by volume acetone/MeOH (1:1) solvent. Treated plants were held in a holding room for three days at approximately 25° C. and ambient relative humidity (RH) prior to grading. Evaluation was conducted by counting the number of live aphids per plant under a microscope. Percent Control was measured by using Abbott's correction formula (W. S. Abbott, “A Method of Computing the Effectiveness of an Insecticide” J. Econ. Entomol 18 (1925), pp. 265-267) as follows. Corrected % Control=100*(X−Y)/X • where • X=No. of live aphids on solvent check plants and • Y=No. of live aphids on treated plants
The results are indicated in the table entitled “Table 1: GPA (MYZUPE) and sweetpotato whitefly-crawler (BEMITA) Rating Table”.

[2] = tested on: Sweetpotato Whitefly Crawler (Bemisia tabaci) (BEMITA); test: Bioassays on Sweetpotato Whitefly Crawler, foliar spray on cotton plants; type: in vivo; conditions: read-out: BEMITA rating (% Control of Mortality)
Description: Cotton plants grown in 3-inch pots, with 1 small (3-5 cm) true leaf, were used at test substrate. The plants were placed in a room with whitely adults. Adults were allowed to deposit eggs for 2-3 days. After a 2-3 day egg-laying period, plants were taken from the adult whitefly room. Adults were blown off leaves using a hand-held Devilbliss sprayer (23 psi). Plants with egg infestation (100-300 eggs per plant) were placed in a holding room for 5-6 days at 82° F. and 50% RH for egg hatch and crawler stage to develop. Four cotton plants were used for each treatment. Compounds (2 mg) were dissolved in 1 mL of acetone solvent, forming stock solutions of 2000 ppm. The stock solutions were diluted 10× with 0.025% Tween 20 in water to obtain a test solution at 200 ppm. A hand-held Devilbliss sprayer was used for spraying a solution to both sides of cotton leaf until runoff. Reference plants (solvent check) were sprayed with the diluent only. Treated plants were held in a holding room for 8-9 days at approximately 82° F. and 50% RH prior to grading. Evaluation was conducted by counting the number of live nymphs per plant under a microscope.

| Structure (SMILES) | mortality at 200 ppm [1] [%] | mortality at 200 ppm [2] [%] | mortality at 200 ppm ([1]; 200 ppm spray on cabbage seedlings, graded after three days, Abbott's correction, live aphids) [%] |
| --- | --- | --- | --- |
| Nc1c[nH]nc1Cl [Compound 1a, 3-chloro-1H-pyrazol-4-amine hydrochloride] | 0 to 80 | 0 to 80 |  |
| CCN(C(=O)CCSCCC(F)(F)F)c1c[nH]nc1Cl [Compound 4.7, N-(3-chloro-1H-pyrazol-4-yl)-N-ethyl-3-((3,3,3-trifluoropropyl)thio)propanamide] |  |  | < 0 |
| CCNc1c[nH]nc1Cl [Compound 7a, 3-Chloro-N-ethyl-1H-pyrazol-4-amine] | < 0 |  |  |
